Biological target: T1, Purified ERAP1 (37-941)-10His (ERAP1) (Homo sapiens, UniProt Q9NZ08)
T1 construct: Purified ERAP1 (37-941)-10His (ERAP1)
Assay: ERAP1 mediated hydrolysis of an amide substrate (10-mer inhibition assay), biochemical system
Settings: 10-mer substrate, 23° C., 1 h, excitation 279 nm / emission 355 nm; read-out: IC50 vs Decapeptide WRVYEKC(Dnp)ALK-acid (where Dnp is Dinitrophenyl maleimide) (10-mer)

T1 sequence (Q9NZ08 37-941): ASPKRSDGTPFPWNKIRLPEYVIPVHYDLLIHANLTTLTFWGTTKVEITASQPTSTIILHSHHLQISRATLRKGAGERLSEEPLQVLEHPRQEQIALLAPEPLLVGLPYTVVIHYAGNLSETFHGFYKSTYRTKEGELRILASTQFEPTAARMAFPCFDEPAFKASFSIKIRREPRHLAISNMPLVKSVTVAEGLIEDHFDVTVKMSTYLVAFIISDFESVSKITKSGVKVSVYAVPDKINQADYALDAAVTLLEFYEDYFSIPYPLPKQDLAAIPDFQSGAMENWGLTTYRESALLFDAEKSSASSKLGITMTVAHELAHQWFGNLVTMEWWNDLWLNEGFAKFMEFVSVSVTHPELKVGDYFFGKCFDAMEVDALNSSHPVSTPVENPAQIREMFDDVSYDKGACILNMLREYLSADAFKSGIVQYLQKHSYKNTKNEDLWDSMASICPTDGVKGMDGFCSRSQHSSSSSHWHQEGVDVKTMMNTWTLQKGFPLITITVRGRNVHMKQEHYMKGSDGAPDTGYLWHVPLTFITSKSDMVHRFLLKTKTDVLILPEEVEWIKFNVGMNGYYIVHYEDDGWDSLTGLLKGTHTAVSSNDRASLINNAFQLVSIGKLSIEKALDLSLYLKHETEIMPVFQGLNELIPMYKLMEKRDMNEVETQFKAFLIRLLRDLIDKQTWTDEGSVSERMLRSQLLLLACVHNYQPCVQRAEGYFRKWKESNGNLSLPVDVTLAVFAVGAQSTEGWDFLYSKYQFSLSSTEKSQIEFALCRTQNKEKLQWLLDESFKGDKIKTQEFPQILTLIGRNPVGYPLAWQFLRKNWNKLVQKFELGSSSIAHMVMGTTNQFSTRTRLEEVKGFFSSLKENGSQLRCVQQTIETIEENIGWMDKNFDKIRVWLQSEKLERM

Row | SMILES | IC50
1 | CCc1ccc(C(=O)O)cc1S(=O)(=O)Nc1cc(-n2cnnn2)ccc1N1CC(C)(O)C1 [Example 257, 4-ethyl-3-(N-(2-(3-hydroxy-3-methylazetidin-1-yl)-5-(tetrazol-1-yl)phenyl)sulfamoyl)benzoic acid] | < 500 nM
2 | COc1ccc(C(=O)O)cc1S(=O)(=O)Nc1cc(C#N)ccc1N1CCC[C@@H](O)C1 [Example 258, I-3-(N-(5-cyano-2-(3-hydroxypiperidin-1-yl)phenyl)sulfamoyl)-4-methoxybenzoic acid] | < 500 nM
3 | COc1ccc(C(=O)O)cc1S(=O)(=O)Nc1cc(-c2nn[nH]n2)ccc1N1CCCCC1 [Example 259, 4-methoxy-3-(N-(2-(piperidin-1-yl)-5-(tetrazol-5-yl)phenyl)sulfamoyl)benzoic acid] | < 500 nM
4 | CCc1ccc(C(=O)O)cc1S(=O)(=O)Nc1cc(C#N)ccc1N1CCC[C@@H](O)C1 [Example 260, I-3-(N-(5-cyano-2-(3-hydroxypiperidin-1-yl)phenyl)sulfamoyl)-4-ethylbenzoic acid] | < 500 nM
5 | CCc1ccc(C(=O)O)cc1S(=O)(=O)Nc1cc(S(C)(=O)=O)ccc1N1CCC[C@@H](F)C1 [Example 262, I-4-ethyl-3-(N-(2-(3-fluoropiperidin-1-yl)-5-(methylsulfonyl)phenyl)sulfamoyl)benzoic acid] | < 500 nM
6 | COc1ccc(C(=O)O)cc1S(=O)(=O)Nc1cc(C#N)ccc1N1CCC[C@H](O)C1 [Example 264, (S)-3-(N-(5-cyano-2-(3-hydroxypiperidin-1-yl)phenyl)sulfamoyl)-4-methoxybenzoic acid] | < 500 nM
7 | COc1ccc(C(=O)O)cc1S(=O)(=O)Nc1cc(-n2cnnn2)ccc1N1CCC[C@@H](F)C1 [Example 265, I-3-(N-(2-(3-fluoropiperidin-1-yl)-5-(tetrazol-1-yl)phenyl)sulfamoyl)-4-methoxybenzoic acid] | < 500 nM
8 | CCc1ccc(C(=O)O)cc1S(=O)(=O)Nc1cc(-n2cnnn2)ccc1N1CCC[C@@H](F)C1 [Example 266, I-4-ethyl-3-(N-(2-(3-fluoropiperidin-1-yl)-5-(tetrazol-1-yl)phenyl)sulfamoyl)benzoic acid] | < 500 nM
9 | O=C(O)c1ccc(C2CC2)c(S(=O)(=O)Nc2cc(C(F)(F)F)ccc2N2CCCCC2)c1 [Example 267, 4-cyclopropyl-3-(N-(2-(piperidin-1-yl)-5-(trifluoromethyl)phenyl)sulfamoyl)benzoic acid] | < 500 nM
10 | O=C(O)c1ccc(-n2cccn2)c(S(=O)(=O)Nc2cc(C(F)(F)F)ccc2N2CCCCC2)c1 [Example 271, 3-(N-(2-(piperidin-1-yl)-5-(trifluoromethyl)phenyl)sulfamoyl)-4-(pyrazol-1-yl)benzoic acid] | < 5000 nM
11 | CCc1ccc(C(=O)O)cc1S(=O)(=O)Nc1cc(-c2cnnn2C)ccc1N1CCCCC1 [Example 274, 4-ethyl-3-(N-(5-(1-methyl-1,2,3-triazol-5-yl)-2-(piperidin-1-yl)phenyl)sulfamoyl)benzoic acid] | < 500 nM
12 | CCc1ccc(C(=O)O)cc1S(=O)(=O)Nc1cc(-c2cncs2)ccc1N1CCCCC1 [Example 275, 4-ethyl-3-(N-(2-(piperidin-1-yl)-5-(thiazol-5-yl)phenyl)sulfamoyl)benzoic acid] | < 500 nM
13 | CCc1ccc(C(=O)O)cc1S(=O)(=O)Nc1cc(-c2cnoc2C)ccc1N1CCCCC1 [Example 279, 4-ethyl-3-(N-(5-(5-methylisoxazol-4-yl)-2-(piperidin-1-yl)phenyl)sulfamoyl)benzoic acid] | < 500 nM
14 | CCc1ccc(C(=O)O)cc1S(=O)(=O)Nc1cc(-c2ccn(C)n2)ccc1N1CCCCC1 [Example 280, 4-ethyl-3-(N-(5-(1-methylpyrazol-3-yl)-2-(piperidin-1-yl)phenyl)sulfamoyl)benzoic acid] | < 500 nM
15 | CCc1ccc(C(=O)O)cc1S(=O)(=O)Nc1cc(-c2ccnn2C)ccc1N1CCCCC1 [Example 281] | < 500 nM
16 | CCc1ccc(C(=O)O)cc1S(=O)(=O)Nc1cc(-c2ncco2)ccc1N1CCCCC1 [Example 289, 4-ethyl-3-(N-(5-(oxazol-2-yl)-2-(piperidin-1-yl)phenyl)sulfamoyl)benzoic acid] | < 500 nM
17 | CCc1ccc(C(=O)O)cc1S(=O)(=O)Nc1cc(-c2cnccn2)ccc1N1CCCCC1 [Example 290, 4-ethyl-3-(N-(2-(piperidin-1-yl)-5-(pyrazin-2-yl)phenyl)sulfamoyl)benzoic acid] | < 500 nM
18 | CCc1ccc(C(=O)O)cc1S(=O)(=O)Nc1cc(-c2c(C)noc2C)ccc1N1CCCCC1 [Example 291, 3-(N-(5-(3,5-dimethylisoxazol-4-yl)-2-(piperidin-1-yl)phenyl)sulfamoyl)-4-ethylbenzoic acid] | < 500 nM
19 | CS(=O)(=O)c1ccc(N2CCCCC2)c(NS(=O)(=O)c2cc(C(=O)O)ccc2C2CC2)c1 [Example 296, 4-cyclopropyl-3-(N-(5-(methylsulfonyl)-2-(piperidin-1-yl)phenyl)sulfamoyl)benzoic acid] | < 500 nM

Continued, values first:

Row | IC50 | SMILES
20 | < 500 nM | CCc1ccc(C(=O)O)cc1S(=O)(=O)Nc1cc(-c2nn[nH]n2)ccc1N1CCCCC1 [Example 261, 4-ethyl-3-(N-(2-(piperidin-1-yl)-5-(tetrazol-5-yl)phenyl)sulfamoyl)benzoic acid]
21 | < 500 nM | CCc1ccc(C(=O)O)cc1S(=O)(=O)Nc1cc(C#N)ccc1N1CCC[C@H](O)C1 [Example 263, (S)-3-(N-(5-cyano-2-(3-hydroxypiperidin-1-yl)phenyl)sulfamoyl)-4-ethylbenzoic acid]
22 | < 500 nM | CCCCc1ccc(C(=O)O)cc1S(=O)(=O)Nc1cc(C(F)(F)F)ccc1N1CCCCC1 [Example 268, 4-butyl-3-(N-(2-(piperidin-1-yl)-5-(trifluoromethyl)phenyl)sulfamoyl)benzoic acid]
23 | < 500 nM | COc1ccc(C(=O)O)cc1S(=O)(=O)Nc1cc(S(C)(=O)=O)ccc1N1CCC[C@@H](F)C1 [Example 269, I-3-(N-(2-(3-fluoropiperidin-1-yl)-5-(methylsulfonyl)phenyl)sulfamoyl)-4-methoxybenzoic acid]
24 | < 5000 nM | CCc1ccc(C(=O)O)cc1S(=O)(=O)Nc1cc(C(F)(F)F)ccc1N1CC(C)(O)C1 [Example 270, 4-ethyl-3-(N-(2-(3-hydroxy-3-methylazetidin-1-yl)-5-(trifluoromethyl)phenyl)sulfamoyl)benzoic acid]
25 | < 500 nM | O=C(O)c1ccc(C2CCO2)c(S(=O)(=O)Nc2cc(C(F)(F)F)ccc2N2CCCCC2)c1 (centres unmarked) [Example 272, 4-(oxetan-2-yl)-3-(N-(2-(piperidin-1-yl)-5-(trifluoromethyl)phenyl)sulfamoyl)benzoic acid]
26 | < 500 nM | CCc1ccc(C(=O)O)cc1S(=O)(=O)Nc1cc(-c2cn(C)nn2)ccc1N1CCCCC1 [Example 273, 4-ethyl-3-(N-(5-(1-methyl-1,2,3-triazol-4-yl)-2-(piperidin-1-yl)phenyl)sulfamoyl)benzoic acid]
27 | < 500 nM | CCc1ccc(C(=O)O)cc1S(=O)(=O)Nc1cc(-c2cc[nH]n2)ccc1N1CCCCC1 [Example 276, 4-ethyl-3-(N-(2-(piperidin-1-yl)-5-(pyrazol-3-yl)phenyl)sulfamoyl)benzoic acid]
28 | < 500 nM | CCc1ccc(C(=O)O)cc1S(=O)(=O)Nc1cc(-c2cnn(C)c2)ccc1N1CCCCC1 [Example 277, 4-ethyl-3-(N-(5-(1-methylpyrazol-4-yl)-2-(piperidin-1-yl)phenyl)sulfamoyl)benzoic acid]
29 | < 500 nM | CCc1ccc(C(=O)O)cc1S(=O)(=O)Nc1cc(-c2nncs2)ccc1N1CCCCC1 [Example 278, 4-ethyl-3-(N-(2-(piperidin-1-yl)-5-(1,3,4-thiadiazol-2-yl)phenyl)sulfamoyl)benzoic acid]
30 | < 500 nM | CCc1ccc(C(=O)O)cc1S(=O)(=O)Nc1cc(-c2cnc(C)s2)ccc1N1CCCCC1 [Example 282, 4-ethyl-3-(N-(5-(2-methylthiazol-5-yl)-2-(piperidin-1-yl)phenyl)sulfamoyl)benzoic acid]
31 | < 500 nM | CCc1ccc(C(=O)O)cc1S(=O)(=O)Nc1cc(-n2cnnn2)ccc1N1CC(O)C1 [Example 283, 4-ethyl-3-(N-(2-(3-hydroxyazetidin-1-yl)-5-(tetrazol-1-yl)phenyl)sulfamoyl)benzoic acid]
32 | < 500 nM | CCc1ccc(C(=O)O)cc1S(=O)(=O)Nc1cc(-c2ccns2)ccc1N1CCCCC1 [Example 286, 4-ethyl-3-(N-(5-(isothiazol-5-yl)-2-(piperidin-1-yl)phenyl)sulfamoyl)benzoic acid]
33 | < 500 nM | CCc1ccc(C(=O)O)cc1S(=O)(=O)Nc1cc(-c2cncn2C)ccc1N1CCCCC1 [Example 287, 4-ethyl-3-(N-(5-(1-methylimidazol-5-yl)-2-(piperidin-1-yl)phenyl)sulfamoyl)benzoic acid]
34 | < 500 nM | CCc1ccc(C(=O)O)cc1S(=O)(=O)Nc1cc(-c2ncnn2C)ccc1N1CCCCC1 [Example 288, 4-ethyl-3-(N-(5-(1-methyl-1,2,4-triazol-5-yl)-2-(piperidin-1-yl)phenyl)sulfamoyl)benzoic acid]
35 | < 500 nM | CCc1ccc(C(=O)O)cc1S(=O)(=O)Nc1cc(-c2nnc(C)o2)ccc1N1CCCCC1 [Example 292, 4-ethyl-3-(N-(5-(5-methyl-1,3,4-oxadiazol-2-yl)-2-(piperidin-1-yl)phenyl)sulfamoyl)benzoic acid]
36 | < 500 nM | CCc1ccc(C(=O)O)cc1S(=O)(=O)Nc1cc(-c2cccnn2)ccc1N1CCCCC1 [Example 293, 4-ethyl-3-(N-(2-(piperidin-1-yl)-5-(pyridazin-3-yl)phenyl)sulfamoyl)benzoic acid]
37 | < 500 nM | CCc1ccc(C(=O)O)cc1S(=O)(=O)Nc1cc(C(F)(F)F)c(Br)cc1N1CCCCC1 [Example 294, 3-(N-(4-bromo-2-(piperidin-1-yl)-5-(trifluoromethyl)phenyl)sulfamoyl)-4-ethylbenzoic acid]
38 | < 500 nM | N#Cc1ccc(N2CCCCC2)c(NS(=O)(=O)c2cc(C(=O)O)ccc2C2CC2)c1 [Example 295, 3-(N-(5-cyano-2-(piperidin-1-yl)phenyl)sulfamoyl)-4-cyclopropylbenzoic acid]
